Ten substances from patent publication US9657081B2, “Inhibiting peptides derived from triggering receptor expressed on myeloid cells-1 (TREM-1) TREM-like transcript 1 (TLT-1) for treatment of cardiovascular diseases” (INSERM (Institut National de la Sante et de la Recherche …, priority 2013, dated 2017) can be followed below.

Format in all cases: in vivo
Assay [1] relates to TREM-1. As to the kind of experiment: Rat model of sepsis-induced cardiac dysfunction, intrinsic cardiac function by Millar catheter. On the set-up: dpdtmax/Ved / PRSW: unit not given beside the values; FEVG / ESPVR: unit not given here. From the text:
TREM-1- and TLT-1-derived peptides administration during rat model of sepsis-induced cardiac dysfunction is associated with an increase of intrinsic cardiac function measured by Millar catheter (FEVG, ESPVR, dpdtmax/Ved, PRSW).
(§1) Rats were anaesthetized with isoflurane and a 2 F high-fidelity micro-manometer catheter (SPR-407, Millar Institute, Houston, Tex., USA) was inserted into the LV via the right carotid artery. The Millar catheter was connected to a Harvard Data Acquisition System interfaced with a PC with the AcqKnowledge III software (ACQ 3.2).

Assay [2] has as its system TREM-1. Kind of assay: Rat model of myocardial ischemia-reperfusion, cardiac function by conductance catheter. Particulars: six weeks after ischemia-reperfusion; 3 mg/kg once a day for 5 days. On the set-up: PRSW: unit not given beside the values; Emax / ESPVR: unit not given here. The method, then:
Adult male Wistar rats were subjected to myocardial ischemia-reperfusion and were randomly grouped (n=10) to receive repeated TREM-1- and TLT-1-derived peptides (3 mg/kg in 0.2 mL NaCl 0.9% once a day for 5 days) or scrambled-LR12 (3 mg/kg in 0.2 mL NaCl 0.9% once a day for 5 days). Six weeks after myocardial injury, cardiac function was investigated under anaesthesia by using a conductance catheter. Emax, ESPVR, and PRSW were higher in animals treated with TREM-1- and TLT-1-derived peptides than in control rats. All p<0.02 [controls versus LR12]).
Animals received same surgery than in permanent ischemia, but with reperfusion of ischemic area by release of the LAD ligation after 60 minutes of ischemia. The same protocol as described above was then applied.
as §1
To investigate the role of TREM-1- and TLT-1-derived peptides in a more relevant model of MI, we performed a transient coronary artery ligation (ischemia-reperfusion model: IR) in rats. After randomisation, animals were then imaged under anaesthesia (micro-TEP) and administered with TREM-1- and TLT-1-derived peptides (3 mg/kg daily for 5 days i.p.) or LR12-scrambled peptide. Imaging was then repeated at 6 weeks before we studied cardiac function by using a conductance catheter (Millar).

In assay [3] the target is T1, TREM-1 (Mus musculus, UniProt Q9JKE2).
T1 construct: endogenous in cells; host or cells: living mice (C57BL, Balb/c, ApoE-/-), in vivo
T1 sequence (Q9JKE2 21-230): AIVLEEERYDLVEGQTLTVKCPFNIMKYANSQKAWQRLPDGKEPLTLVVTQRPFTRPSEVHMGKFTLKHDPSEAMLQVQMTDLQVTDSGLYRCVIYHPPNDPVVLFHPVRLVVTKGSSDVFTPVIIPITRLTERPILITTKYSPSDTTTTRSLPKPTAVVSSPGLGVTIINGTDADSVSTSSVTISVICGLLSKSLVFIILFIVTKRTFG
Kind of assay: Mouse model of myocardial infarction, survival. Conditions: 100 μg daily for 5 days i.p. The procedure:
Adult male Balb/c mice (20-23 g) were subjected to myocardial ischemia and were randomly grouped (n=10-15 per group) to receive repeated TREM-1- and TLT-1-derived peptides (100 μg in 0.2 mL NaCl 0.9% once a day for 5 days), scrambled-LR12 (100 μg in 0.2 mL NaCl 0.9% once a day for 5 days), or 10 μg anti-TREM-1 mAb in 0.2 mL NaCl 0.9% i.p. injections. Survival was monitored over 1 wk and analyzed by Log Rank test. (There were no deaths after the 5th day). Data are representative of at least 15 different experiments.
All procedures were performed on mice male C57BL/C ranging in age from 6-8 weeks. Mice were anesthetized by an intraperitoneal injection of xylazine (60 mg/kg) and fixed in supine position. The trachea was intubated and ventilated (the tidal volume was 200 μl/25 g and the respiratory rate was 120 breaths/min). After a left thoracotomy, the left coronary artery was identified and ligated with an 8-0 prolene surgical suture at 1.0 mm distal from tip of the left auricle. LAD occlusion was confirmed by a change in myocardial color from red to white in the ischemia area (Left ventricle). The chest was closed and the skin was sutured with 6-0 silk. […]
Mice were monitored after surgery for mortality. Mice were randomized to receive or not peptides (daily ip injection for 5 days, 5 mg/kg) and monitored for survival. […]

With “EDAGEY (listed as Homo sapiens) [TLT1-LR6-2]”, in the assay with TREM-1 [1], the ESPVR is 2.3 ± 0.2, the FEVG came to 75 ± 5.9, the PRSW was determined as 139 ± 10 and the dpdtmax/Ved came to 155 ± 12. For the same substance, in the assay on TREM-1 [2], the ESPVR was 1.8 ± 0.1, the Emax amounted to 6.5 ± 0.9 and the PRSW was 99 ± 8.

Regarding “EDSGLY (listed as Homo sapiens) [TREM1-LP6-2]”, in the assay with TREM-1 [1], the ESPVR came to 2.7 ± 0.1, the FEVG is 79.4 ± 9.9, the PRSW is given as 144 ± 6 and the dpdtmax/Ved stood at 155 ± 15. Moreover, in the assay on TREM-1 [2], the ESPVR worked out at 2.2 ± 0.1, the Emax was found to be 6 ± 0.6 and the PRSW was found to be 104 ± 5.

With “ELMEGGQECADY (synthetic peptide scramble) [TLT-1-LR12scr, reference compound]”, in the assay on TREM-1 [1], the ESPVR was determined as 1.6 ± 0.3, the FEVG is 39.9 ± 4.9, the PRSW worked out at 88 ± 8 and the dpdtmax/Ved was determined as 61 ± 12. The substance further gave a mice died with TREM-1 [3] of 40%. In the assay with TREM-1 [2], the ESPVR is reported as 1.1 ± 0.3, the Emax is 2.7 ± 0.3 and the PRSW is 65 ± 8.

Regarding “GEYGCM (listed as Homo sapiens) [TLT-1LR6-3]”, in the assay on TREM-1 [1], the ESPVR was 2.2 ± 0.2, the FEVG is 78 ± 8.7, the PRSW is on record as 149 ± 6 and the dpdtmax/Ved was found to be 157 ± 10. In the assay on TREM-1 [2], this substance showed an ESPVR of 1.7 ± 0.3, an Emax of 5.2 ± 0.4 and a PRSW of 109 ± 6.

Consider “GLYQCV (listed as Homo sapiens) [TREM1-LP6-3]”, for which, in the assay with TREM-1 [1], the ESPVR is reported as 2.9 ± 0.4, the FEVG is 78.6 ± 7.4, the PRSW worked out at 139 ± 8 and the dpdtmax/Ved was found to be 163 ± 10. In the assay with TREM-1 [2], this substance displayed an ESPVR of 2.3 ± 0.4, an Emax of 5.8 ± 0.5 and a PRSW of 99 ± 8.

In the assay on TREM-1 [1], “LQEEDA (listed as Homo sapiens) [TLT1-LR6-1]” displayed an ESPVR of 2.9 ± 0.3, an FEVG of 79.6 ± 7.4, a PRSW of 142 ± 8 and a dpdtmax/Ved of 160 ± 15. In the assay with TREM-1 [2], this substance returned an ESPVR of 2.4 ± 0.4, an Emax of 4.5 ± 0.6 and a PRSW of 102 ± 6.

In the assay with TREM-1 [1], “LQEEDAGEYGCMVDGAR (listed as Homo sapiens) [TLT1-LR17]” yielded an ESPVR of 2.5 ± 0.3, an FEVG of 75.6 ± 7.2, a PRSW of 145 ± 6 and a dpdtmax/Ved of 150 ± 12. In the assay on TREM-1 [2], this substance had an ESPVR of 2 ± 0.2, an Emax of 5.1 ± 0.6 and a PRSW of 105 ± 6.

In the assay with TREM-1 [1], “LQVEDS (listed as Homo sapiens) [TREM1-LP6-1]” gave an ESPVR of 2.5 ± 0.3, an FEVG of 76 ± 5.9, a PRSW of 145 ± 6 and a dpdtmax/Ved of 150 ± 20. In the assay with TREM-1 [2], this substance displayed an ESPVR of 2 ± 0.3, an Emax of 5.5 ± 0.4 and a PRSW of 105 ± 6.

In the case of “LQVEDSGLYQCV (listed as Homo sapiens) [TREM1-LP12]”, in the assay on TREM-1 [1], the ESPVR is reported as 2.8 ± 0.2, the FEVG is listed as 72 ± 9.4, the PRSW is given as 139 ± 6 and the dpdtmax/Ved is 158 ± 18. In the assay with TREM-1 [2], the ESPVR amounted to 2.3 ± 0.4, the Emax came to 4.5 ± 0.4 and the PRSW was 99 ± 4.

Take “LQVEDSGLYQCVIYQPP (listed as Homo sapiens) [TREM1-LP17]”: in the assay with TREM-1 [1], the ESPVR stood at 2.7 ± 0.3, the FEVG was found to be 75.9 ± 8.9, the PRSW is recorded as 150 + 8 and the dpdtmax/Ved amounted to 156 ± 11. For the same substance, in the assay on TREM-1 [2], the ESPVR came to 2.2 ± 0.3, the Emax is 5.9 ± 0.8 and the PRSW was 110 ± 5.
